Assays:
Format in all cases: cell-based
RAW 264.7 γNO(−) cells = assay: Cytokine induction and ELISAs in mouse macrophages (RAW 264.7 γNO(−) cells); conditions: for secretion of cytokines (TNF-α, IL-6, IP-10, IFN-β and IL-1β): Example III, data not shown; for Cytokine top value of dose-response curve, pro Il-1β: cell lysates; for Cytokine top value of dose-response curve, pro Il-1β / TNF-α and IFN-β production, dose response (in words) / Cytokine top value of dose-response curve, IFN-β / Cytokine top value of dose-response curve, IL-6 / Cytokine top value of dose-response curve, IP-10 / Cytokine top value of dose-response curve, RANTES / Cytokine top value of dose-response curve, TNF-α: 5.5 h; for Cytokine top value of dose-response curve, pro Il-1β / Cytokine top value of dose-response curve, IFN-β / Cytokine top value of dose-response curve, IL-6 / Cytokine top value of dose-response curve, IP-10 / Cytokine top value of dose-response curve, RANTES / Cytokine top value of dose-response curve, TNF-α: best-fit value ± std. error; for TNF-α and IFN-β production, dose response (in words) / Cytokine top value of dose-response curve, IFN-β / Cytokine top value of dose-response curve, IL-6 / Cytokine top value of dose-response curve, IP-10 / Cytokine top value of dose-response curve, RANTES / Cytokine top value of dose-response curve, TNF-α / Cytokine top value of dose-response curve, IL-1β: supernatant; for TNF-α and IFN-β production, dose response (in words): wide range of concentrations; for Cytokine top value of dose-response curve, IL-1β: 24 h, best-fit value ± std. error (# plateau not reached for LPS)
Description: Mouse macrophages (RAW 264.7 γNO(−) cells) were exposed over a wide range of concentrations to compounds 1-5 and E. coli 055:B5 LPS. After 5.5 hours, the supernatants were harvested and examined for mouse TNF-α and IFN-β using a commercial and in-house developed capture ELISA assay, respectively. Potencies (EC50, concentration producing 50% activity) and efficacies (maximal level of production) were determined by fitting the dose-response curves to a logistic equation using PRISM software. […] It has also been shown that removal of the KDO moieties by mild acidic treatment reduces cellular responses (Demchenko et al., J. Am. Chem. Soc. 2003, 125, 6103-6112).
Having established the EC50 values of TNF-α and IFN-β secretion by compounds 1-5 and E. coli 055:B5 LPS, attention was focused on IL-6, IP-10, RANTES, and IL-1β responses. Thus, the previously harvested supernatants were analyzed for these cytokines using capture ELISA assays (FIG. 4, Table 1). For IL-6, IP-10, and RANTES, a short incubation time of 5.5 hrs was sufficient for detection. To achieve significant IL-1β secretion, the incubation had to be extended to 24 hrs. […] IL-1β is expressed as a pro-protein (pro-IL-1β), which is cleaved by caspase-1 into its active form (IL-1β), which is then secreted. Indeed, analyzing IL-1β of the cell lysates by Western blotting confirmed that it was present as a pro-protein (data not shown). TNF-α is also produced as a pro-protein, which is proteolitically cleaved by tumor necrosis factor-α converting enzyme (TACE) (Skotnicki and Levin, Annu. Rep. Med. Chem. 2003, 38, 153-162; Duffy et al., Thromb. Haemost. 2003, 89, 622-631). […] Furthermore, for each of the synthetic compounds and LPS, EC50 values of secreted TNF-α and intracellular pro-IL-1β were very similar. However, EC50 values for secreted mature IL-1β were larger by as much as 100-fold.
RAW 264.7 γNO(−) cells were plated on the day of the exposure assay as 2×10^5 cells/well in 96-well tissue culture plates (Nunc). Cells were incubated with different stimuli for 5.5 and 24 hours in replicates of five. Culture supernatants were then collected, pooled, and stored frozen (−80° C.) until assayed for cytokine production. After removal of the supernatant, cells were lysed by adding PBS containing Tween 20 (0.01%) and BSA (1%) in the same volume as that of the supernatant and sonicating for 5 min. The cell lysates were pooled and stored frozen (−80° C.) until assayed for cytokine production.
All cytokine ELISAs were performed in 96-well MaxiSorp plates (Nunc). Cytokine DuoSet ELISA Development Kits (R&D Systems) were used for the cytokine quantification of mouse TNF-α, IL-6, IP-10, RANTES, and IL-1β according to the manufacturer's instructions. The absorbance was measured at 450 nm with wavelength correction set to 540 nm using a microplate reader (BMG Labtech). Concentrations of IFN-β in culture supernatants were determined as follows. ELISA MaxiSorp plates were coated with rabbit polyclonal antibody against mouse IFN-β (PBL Biomedical Laboratories). IFN-β in standards and samples was allowed to bind to the immobilized antibody. Rat anti-mouse IFN-β antibody (USBiological) was then added, producing an antibody-antigen-antibody “sandwich”. Next, horseradish peroxidase (HRP) conjugated goat anti-rat IgG (H+L) antibody (Pierce) and a chromogenic substrate for HRP 3,3′,5,5′-tetramethylbenzidine (TMB; Pierce) were added. After the reaction was stopped, the absorbance was measured at 450 nm with wavelength correction set to 540 nm. All cytokine values are presented as the means±SD of triplicate measurements, with each experiment being repeated three times.
Concentration-response data were analyzed using nonlinear least-squares curve fitting in Prism (GraphPad Software, Inc.). […] The Hillslope was set at 1 to be able to compare the EC50 values of the different inducers. […]

human TLR4/MD2/CD14 = molecular target: T1, human TLR4/MD2/CD14 (Homo sapiens, UniProt O00206+Q9Y6Y9); assay: NF-κB activation in HEK 293T cells stably transfected with human TLR4/MD2/CD14; conditions: 103/104 at 0.1, 1 and 10 μg mL−1; E. coli LPS 10 ng mL−1; 4 h
T1 construct: host or cells: HEK 293T
Description: Induction of NF-κB activation was determined in triplicate cultures of HEK 293T cells stably transfected with human or mouse (a) TLR4/MD2/CD14 and (b) TLR2 and transiently transfected with pELAM-Luc and pRL-TK plasmids. Forty-four h post-transfection, cells were treated with (B) E. coli LPS (10 ng mL^−1), (C) Pam3CysSK4 (1 μg mL^−1), (D, E and F) 103 (0.1, 1 and 10 μg mL^−1, respectively), (G, H and I) 104 (0.1, 1 and 10 μg mL^−1, respectively) or (A) were left untreated (control). Forty-eight h post-transfection, NF-κB activation was determined by firefly luciferase activity relative to Renilla luciferase activity. n.a. indicates not analyzed. […]
The day before transfection, HEK 293T wild type cells and HEK 293T cells stably transfected with human and murine TLR4/MD2/CD14 and human and murine TLR2 were plated in 96-well tissue culture plates (16,000 cells/well). […] The luciferase activity was measured using the Dual-Luciferase Reporter Assay System (Promega) according to the manufacturer's instructions and a combination luminometer/fluorometer microplate reader (BMG Labtech). […]

mouse TLR2 = molecular target: T2, mouse TLR2 (Mus musculus, UniProt Q9QUN7); assay: NF-κB activation in HEK 293T cells stably transfected with mouse TLR2; conditions: 103/104 at 0.1, 1 and 10 μg mL−1; Pam3CysSK4 1 μg mL−1; 4 h
T2 construct: host or cells: HEK 293T
Description: Induction of NF-κB activation was determined in triplicate cultures of HEK 293T cells stably transfected with human or mouse (a) TLR4/MD2/CD14 and (b) TLR2 and transiently transfected with pELAM-Luc and pRL-TK plasmids. Forty-four h post-transfection, cells were treated with (B) E. coli LPS (10 ng mL^−1), (C) Pam3CysSK4 (1 μg mL^−1), (D, E and F) 103 (0.1, 1 and 10 μg mL^−1, respectively), (G, H and I) 104 (0.1, 1 and 10 μg mL^−1, respectively) or (A) were left untreated (control). Forty-eight h post-transfection, NF-κB activation was determined by firefly luciferase activity relative to Renilla luciferase activity. n.a. indicates not analyzed.
To examine the ability of the synthetic compounds to induce activation of NF-κB, HEK 293T cells were employed that were stably transfected with various immune receptors and transiently transfected with a plasmid containing the reporter gene pELAM-Luc (NF-κB-dependent firefly luciferase reporter vector) and a plasmid containing the control gene pRL-TK (Renilla luciferase control reporter vector) (FIG. 11). […] Although compound 104 is a weak activator of mouse TLR4, it could not induce the secretion of cytokines.
The day before transfection, HEK 293T wild type cells and HEK 293T cells stably transfected with human and murine TLR4/MD2/CD14 and human and murine TLR2 were plated in 96-well tissue culture plates (16,000 cells/well). The next day, cells were transiently transfected using PolyFect Transfection Reagent (Qiagen) with expression plasmids pELAM-Luc (NF-κB-dependent firefly luciferase reporter plasmid, 50 ng/well) (Chow et al., J. Biol. Chem., 1999, 274, 10689-10692) and pRL-TK (Renilla luciferase control reporter vector, 1 ng/well; Promega) as an internal control to normalize experimental variations. […] The luciferase activity was measured using the Dual-Luciferase Reporter Assay System (Promega) according to the manufacturer's instructions and a combination luminometer/fluorometer microplate reader (BMG Labtech). […]

T2 sequence (Q9QUN7 25-784): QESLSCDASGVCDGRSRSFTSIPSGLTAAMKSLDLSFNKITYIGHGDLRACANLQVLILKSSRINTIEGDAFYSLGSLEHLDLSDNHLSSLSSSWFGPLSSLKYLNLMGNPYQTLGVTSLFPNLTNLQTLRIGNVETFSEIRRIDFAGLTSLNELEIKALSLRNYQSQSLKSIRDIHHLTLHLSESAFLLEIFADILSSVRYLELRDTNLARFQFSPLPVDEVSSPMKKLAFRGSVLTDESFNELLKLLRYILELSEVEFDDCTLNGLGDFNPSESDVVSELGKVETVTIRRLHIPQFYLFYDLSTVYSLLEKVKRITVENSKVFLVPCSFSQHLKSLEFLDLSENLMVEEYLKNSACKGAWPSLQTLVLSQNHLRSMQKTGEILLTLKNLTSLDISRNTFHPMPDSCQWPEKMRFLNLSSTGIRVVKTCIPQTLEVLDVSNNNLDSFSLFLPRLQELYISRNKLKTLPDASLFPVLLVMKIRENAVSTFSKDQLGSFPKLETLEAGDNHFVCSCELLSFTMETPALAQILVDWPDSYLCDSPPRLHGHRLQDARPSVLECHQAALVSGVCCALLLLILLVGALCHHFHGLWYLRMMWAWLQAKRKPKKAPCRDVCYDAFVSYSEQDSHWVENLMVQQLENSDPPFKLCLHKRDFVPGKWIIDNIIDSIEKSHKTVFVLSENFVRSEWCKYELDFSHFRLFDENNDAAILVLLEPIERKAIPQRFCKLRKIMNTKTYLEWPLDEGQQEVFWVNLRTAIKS
T1 sequence (O00206 24-839): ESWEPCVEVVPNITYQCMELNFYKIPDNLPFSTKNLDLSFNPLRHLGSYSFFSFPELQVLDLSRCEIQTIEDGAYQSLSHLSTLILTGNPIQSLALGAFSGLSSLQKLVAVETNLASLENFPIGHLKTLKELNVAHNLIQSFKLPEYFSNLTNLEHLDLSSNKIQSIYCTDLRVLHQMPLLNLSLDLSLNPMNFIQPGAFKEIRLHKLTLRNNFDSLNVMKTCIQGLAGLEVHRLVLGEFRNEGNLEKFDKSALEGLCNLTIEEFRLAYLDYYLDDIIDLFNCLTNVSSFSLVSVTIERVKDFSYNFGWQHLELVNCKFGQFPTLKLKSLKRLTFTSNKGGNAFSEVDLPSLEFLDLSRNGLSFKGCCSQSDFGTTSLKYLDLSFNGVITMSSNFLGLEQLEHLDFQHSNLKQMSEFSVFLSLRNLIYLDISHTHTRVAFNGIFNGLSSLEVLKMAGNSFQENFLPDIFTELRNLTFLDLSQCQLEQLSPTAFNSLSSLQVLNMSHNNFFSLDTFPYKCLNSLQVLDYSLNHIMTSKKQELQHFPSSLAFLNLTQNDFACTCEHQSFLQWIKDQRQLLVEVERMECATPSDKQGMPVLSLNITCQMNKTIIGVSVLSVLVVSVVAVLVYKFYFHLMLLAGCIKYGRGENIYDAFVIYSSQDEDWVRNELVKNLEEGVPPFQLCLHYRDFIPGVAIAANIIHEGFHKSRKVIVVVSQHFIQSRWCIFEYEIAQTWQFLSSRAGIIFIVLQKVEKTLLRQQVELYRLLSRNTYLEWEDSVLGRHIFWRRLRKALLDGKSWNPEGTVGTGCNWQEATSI
T1 sequence (Q9Y6Y9 19-160): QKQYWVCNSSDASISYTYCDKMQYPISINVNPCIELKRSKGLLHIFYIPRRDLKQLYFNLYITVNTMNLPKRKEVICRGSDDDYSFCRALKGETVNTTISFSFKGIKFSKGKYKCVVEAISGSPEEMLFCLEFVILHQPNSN

Structure (SMILES)	secretion of cytokines (TNF-α, IL-6, IP-10, IFN-β and IL-1β) (RAW 264.7 γNO(−) cells)	NF-κB activation, human TLR4/MD2/CD14 (human TLR4/MD2/CD14)	NF-κB activation, mouse TLR2 (mouse TLR2)	Cytokine top value of dose-response curve, pro Il-1β (RAW 264.7 γNO(−) cells)	TNF-α and IFN-β production, dose response (in words) (RAW 264.7 γNO(−) cells)	Cytokine top value of dose-response curve, IFN-β (RAW 264.7 γNO(−) cells)	Cytokine top value of dose-response curve, IL-6 (RAW 264.7 γNO(−) cells)	Cytokine top value of dose-response curve, IP-10 (RAW 264.7 γNO(−) cells)	Cytokine top value of dose-response curve, RANTES (RAW 264.7 γNO(−) cells)	Cytokine top value of dose-response curve, TNF-α (RAW 264.7 γNO(−) cells)	Cytokine top value of dose-response curve, IL-1β (RAW 264.7 γNO(−) cells)
CCCCCCCCCCCCCCCC(=O)O[C@H](CCCCCCCCCCCC(C)C)CC(=O)N[C@H]1[C@H](OC[C@H]2O[C@H](OP(=O)(O)O)[C@H](NC(=O)C[C@H](O)CCCCCCCCCCCC(C)C)[C@@H](OC(=O)C[C@H](O)CCCCCCCCCCCCC)[C@@H]2O)O[C@H](CO)[C@@H](O)[C@@H]1O [Compound 103, 6-O-{2-Deoxy-2-[(R)-3-hexadecanoyloxy-15-methyl-hexadecanoylamino]-β-D-glucopyranosyl}-3-O—[(R)-3-hydroxy-hexadecanoyl]-2-deoxy-2-[(R)-3-hydroxy-15-methyl-hexadecanoylamino]-α-D-glucopyranose 1-phosphate]	did not lead to secretion of cytokines	No activation of NF-κB	No activation of NF-κB	–	–	–	–	–	–	–	–
CCCCCCCCCCCCCCCC(=O)O[C@H](CCCCCCCCCCCC(C)C)CC(=O)N[C@H]1[C@H](OC[C@H]2O[C@H](OP(=O)(O)O)[C@H](NC(=O)C[C@H](O)CCCCCCCCCCCC(C)C)[C@@H](O)[C@@H]2O)O[C@H](CO)[C@@H](O)[C@@H]1ONC(=O)C[C@H](O)CCCCCCCCCC(C)C [Compound 104, 6-O-{2-Deoxy-2-[(R)-3-hexadecanoyloxy-15-methyl-hexadecanoylamino]-3-O—[(R)-3-hydroxy-13-methyl-tetradecanoylamino]-β-D-glucopyranosyl}-2-deoxy-2-[(R)-3-hydroxy-15-methyl-hexadecanoylamino]-α-D-glucopyranose 1-phosphate]	did not lead to secretion of cytokines	No activation of NF-κB	No activation of NF-κB	–	–	–	–	–	–	–	–
CCCCCCCCCCCCCC(=O)OC(CCCCCCCCCCC)CC(=O)OC1C(NC(=O)CC(CCCCCCCCCCC)OC(=O)CCCCCCCCCCC)C(OCC2OC(OP(=O)(O)O)C(NC(=O)CC(O)CCCCCCCCCCC)C(OC(=O)CC(O)CCCCCCCCCCC)C2O)OC(CO)C1OP(=O)(O)O [Lipid A 1, 6-O-{2-Deoxy-2-[(R)-3-dodecanoyloxy-tetradecanoylamino]-3-O—[(R)-3-tetradecanoyloxy-tetradecanoyl]-β-D-glucopyranosyl}-2-deoxy-3-O—[(R)-3-hydroxy-tetradecanoyl]-2-[(R)-3-hydroxy-tetradecanoylamino]-α-D-glucopyranose 1,4′-bisphosphate]	–	–	–	565 ± 25 pg/mL	clear dose response curves	724 ± 25 pg/mL	249 ± 29 pg/mL	6778 ± 214 pg/mL	5531 ± 214 pg/mL	3924 ± 179 pg/mL	92 ± 2 pg/mL
CCCCCCCCCCCC(=O)OC(CCCCCCCCCCC)CC(=O)NC1C(OCC2OC(OP(=O)(O)O)C(NC(=O)CC(O)CCCCCCCCCCC)C(OC(=O)CC(O)CCCCCCCCC)C2O)OC(CO)C(OP(=O)(O)O)C1OC(=O)CC(CCCCCCCCC)OC(=O)CCCCCCCCCCC [Lipid A 2, 6-O-{2-Deoxy-3-O—[(R)-3-dodecanoyloxy-dodecanoyl]-2-[(R)-3-dodecanoyloxy-tetradecanoylamino]-β-D-glucopyranosyl}-2-deoxy-3-O—[(R)-3-hydroxy-dodecanoyl]-2-[(R)-3-hydroxy-tetredecanoylamino]-α-D-glucopyranose 1,4′-bisphosphate]	–	–	–	587 ± 87 pg/mL	clear dose response curves	654 ± 37 pg/mL	299 ± 42 pg/mL	7207 ± 277 pg/mL	6851 ± 216 pg/mL	4223 ± 329 pg/mL	82 ± 2 pg/mL
CCCCCCCCCCCCCCCC(=O)OC(CCCCCCCCCCC)CC(=O)NC1C(OP(=O)(O)O)OC(COC2OC(CO)C(OP(=O)(O)O)C(OC(=O)CC(CCCCCCCCC)OC(=O)CCCCCCCCCCC)C2NC(=O)CC(CCCCCCCCCCC)OC(=O)CCCCCCCCCCC)C(O)C1OC(=O)CC(O)CCCCCCCCC [Lipid A 4, 6-O-{2-Deoxy-3-O—[(R)-3-dodecanoyloxy-dodecanoyl]-2-[(R)-3-dodecanoyloxy-tetradecanoylamino]-β-D-glucopyranosyl}-2-deoxy-2-[(R)-3-hexadecanoyloxy-tetredecanoylamino]-3-O—[(R)-3-hydroxy-dodecanoyl]-α-D-glucopyranose 1,4′-bisphosphate]	–	–	–	610 ± 35 pg/mL	clear dose response curves	710 ± 44 pg/mL	233 ± 12 pg/mL	7320 ± 415 pg/mL	5360 ± 263 pg/mL	4178 ± 250 pg/mL	86 ± 4 pg/mL
